Experimental data: US8148373B2, “Compounds” (AstraZeneca AB, priority 2008, dated 2012)

Assays:
[1] = target: T1, human muscarinic acetylcholine M3 receptor (M3-ACh) (Homo sapiens, UniProt P20309); test: Muscarinic 3 Receptor Binding Assay ([3H]NMS competition, SPA); details: [3H]NMS 0.1 nM, CHO-K1 cell membranes, 16 hours at room temperature; read-out: M3 pIC50 (converted)
T1 construct: expressed in transfected cells; host or cells: CHO-K1 (Chinese Hamster Ovary) cell membranes
How it was run: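 Competition SPA binding of 0.1 nM [3H]NMS (quarter Kd) to membranes from CHO-K1 cells expressing human M3, in 20 mM HEPES pH 7.4, 5 mM MgCl2, 1% DMSO. Incubated 16 h at room temperature; non-specific binding with 1 µM atropine. pIC50 from 50% reduction of specific binding.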

[2] = target: T1, human muscarinic acetylcholine M3 receptor (M3-ACh); test: Muscarinic 3 Receptor Binding Assay, % inhibition specific binding at 1 μM; details: 1 μM compound, % inhibition specific [3H]-NMS binding
How it was run: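 Value is % inhibition of specific [3H]N-methyl scopolamine binding (0.1 nM, quarter Kd) by 1 μM compound, using SPA beads precoated with human M3-expressing CHO-K1 membranes. Buffer HEPES pH 7.4 with MgCl2 and 1% DMSO; 16 h at room temperature; 1 μM atropine sets non-specific binding.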

[3] = target: T2, Adrenergic β2 (H292 cells) (Homo sapiens, UniProt P07550); test: Assay for Adrenergic β2 Mediated cAMP Production (concentration response, AlphaScreen cAMP detection); assay type: cell-based; details: for EC50: cAMP production, 60 minutes at room temperature, 300 μM rolipram, read-out: β2 pEC50 (converted); for β2 Intrinsic activity: fraction relative to the maximum activity determined for formoterol
T2 construct: endogenous in cells; host or cells: H292 cells
How it was run: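 Intrinsic activity is relative to the per-experiment formoterol maximum, with pEC50 from a four-parameter logistic fit of cAMP levels quantified by AlphaScreen against standards. Cells (H292) got 300 μM rolipram for 10 min, then compound for 60 min at room temperature, 1% DMSO final.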

[4] = target: T2, Adrenergic β2 (H292 cells); test: Adrenergic β2 Mediated cAMP Production, single concentration 1 μM; assay type: cell-based; details: NCI-H292, 1 μM compound, percentage of the maximum response generated by 1E-07M formoterol, read-out: β2 (% effect at 1 μM)
How it was run: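 cAMP was quantified by AlphaScreen in lysates of H292 cells and reported as a percentage of the 1E-07M formoterol maximum. Before lysis the cells, seeded the previous day, received rolipram (300 μM final) and then test compound at a final 1 μM in 1% DMSO for 60 min at room temperature.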

T2 sequence (P07550 whole entry): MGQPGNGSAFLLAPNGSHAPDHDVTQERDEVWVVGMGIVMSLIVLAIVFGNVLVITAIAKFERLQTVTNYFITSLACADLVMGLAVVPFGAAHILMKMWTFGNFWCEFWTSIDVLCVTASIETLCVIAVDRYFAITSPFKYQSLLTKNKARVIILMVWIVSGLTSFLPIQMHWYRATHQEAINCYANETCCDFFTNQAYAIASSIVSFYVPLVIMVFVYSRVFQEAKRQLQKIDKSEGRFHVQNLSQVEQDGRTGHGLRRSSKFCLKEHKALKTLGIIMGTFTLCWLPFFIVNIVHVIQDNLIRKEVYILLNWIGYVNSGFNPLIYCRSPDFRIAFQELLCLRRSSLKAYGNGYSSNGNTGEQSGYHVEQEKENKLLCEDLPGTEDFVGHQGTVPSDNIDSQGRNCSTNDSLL
T1 sequence (P20309 whole entry): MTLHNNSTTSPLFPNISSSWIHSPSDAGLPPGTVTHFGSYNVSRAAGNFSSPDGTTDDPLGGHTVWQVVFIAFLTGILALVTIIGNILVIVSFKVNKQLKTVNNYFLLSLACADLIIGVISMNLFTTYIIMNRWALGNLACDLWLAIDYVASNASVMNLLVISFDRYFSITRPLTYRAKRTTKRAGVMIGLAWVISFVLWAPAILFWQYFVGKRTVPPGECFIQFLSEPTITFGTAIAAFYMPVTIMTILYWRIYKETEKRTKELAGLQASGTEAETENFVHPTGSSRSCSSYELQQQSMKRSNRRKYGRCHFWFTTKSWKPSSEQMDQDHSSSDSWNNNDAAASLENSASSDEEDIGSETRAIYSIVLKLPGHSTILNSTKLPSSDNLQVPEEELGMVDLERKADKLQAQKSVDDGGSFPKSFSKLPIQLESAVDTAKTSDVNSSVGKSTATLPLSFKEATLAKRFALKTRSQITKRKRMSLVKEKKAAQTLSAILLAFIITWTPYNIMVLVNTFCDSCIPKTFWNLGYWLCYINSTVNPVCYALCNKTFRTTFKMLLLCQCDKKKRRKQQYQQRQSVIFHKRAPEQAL

| IC50 [1] [µM] | inhibition at 1 µM [2] [%] | EC50 [3] [µM] | β2 Intrinsic activity [3] | activation at 1 µM [4] [%] | SMILES |
| --- | --- | --- | --- | --- | --- |
| 0.00126 | 99 | 0.0316 | 0.9 | 93 | O=C(c1csc(C2CCCC2)n1)N1CCOC2(CCN(CCCCCCCCCNC[C@H](O)c3ccc(O)c4[nH]c(=O)sc34)CC2)C1 [Example 221, (R)-7-(2-(9-(4-(2-cyclopentylthiazole-4-carbonyl)-1-oxa-4,9-diazaspiro[5.5]undecan-9-yl)nonylamino)-1-hydroxyethyl)-4-hydroxybenzo[d]thiazol-2(3H)-one] |
| 0.00501 | 99 | 0.2 | 0.9 | 68 | O=C(c1csc(C2CC2)n1)N1CCOC2(CCN(CCOc3ccc(CNC[C@H](O)c4ccc(O)c5[nH]c(=O)sc45)cc3)CC2)C1 [Example 259, (R)-7-(2-(4-(2-(4-(2-cyclopropylthiazole-4-carbonyl)-1-oxa-4,9-diazaspiro[5.5]undecan-9-yl)ethoxy)benzylamino)-1-hydroxyethyl)-4-hydroxy-benzo[d]thiazol-2(3H)-one] |
